Reference: ChEMBL document CHEMBL1914304 (J Med Chem, 2011)

Assays:
[1] = Selectivity ratio of EC50 for human HepG2 cells to EC50 for Plasmodium falciparum
HEK293 = experiment: Cytotoxicity against human HEK293 cells after 72 hrs by luminescence assay; assay type: cell-based; settings: hek293, 72 h
Raji = experiment: Cytotoxicity against human Raji cells after 72 hrs by luminescence assay; assay type: cell-based
HepG2 = experiment: Cytotoxicity against human HepG2 cells after 72 hrs by luminescence assay; assay type: cell-based; settings: hepg2, 72 h
BJ = experiment: Cytotoxicity against human BJ cells after 72 hrs by luminescence assay; assay type: cell-based

Row | Structure (SMILES) | selectivity ratio [1] | Activity (HEK293) | Activity (Raji) | Activity (HepG2) | Activity (BJ)
1 | COc1cccc(N2CCN(CC(O)COc3ccccc3C(=O)CCc3ccccc3)CC2)c1.Cl (racemic) | > 10 | Non-toxic | Non-toxic | Non-toxic | Non-toxic
2 | COc1ccc(N2CCN(CC(O)COc3ccccc3C(=O)CCc3ccccc3)CC2)cc1.Cl (racemic) | > 10 | Non-toxic | Non-toxic | Non-toxic | Non-toxic
3 | Cl.O=C(CCc1ccccc1)c1ccccc1OCC(O)CN1CCN(c2ccccc2Cl)CC1 (racemic) | > 10 | Non-toxic | Non-toxic | Non-toxic | Non-toxic
4 | Cl.O=C(CCc1ccccc1)c1ccccc1OCC(O)CN1CCN(c2ccc(Cl)cc2)CC1 (racemic) | > 10 | Non-toxic | Non-toxic | Non-toxic | Non-toxic
5 | Cl.O=C(CCc1ccccc1)c1ccccc1OCC(O)CN1CCN(c2ccc(Cl)c(Cl)c2)CC1 (racemic) | > 10 | Non-toxic | Non-toxic | Non-toxic | Non-toxic
6 | Cl.O=C(CCc1ccccc1)c1ccccc1OCC(O)CN1CCN(c2ccccc2F)CC1 (racemic) | > 10 | Non-toxic | Non-toxic | Non-toxic | Non-toxic
7 | Cl.O=C(CCc1ccccc1)c1ccccc1OCC(O)CN1CCN(c2ccc(F)cc2)CC1 (racemic) | > 10 | Non-toxic | Non-toxic | Non-toxic | Non-toxic
8 | Cl.O=C(CCc1ccccc1)c1ccccc1OCC(O)CN1CCN(c2ccc([N+](=O)[O-])cc2)CC1 (racemic) | > 10 | Non-toxic | Non-toxic | Non-toxic | Non-toxic
9 | Cl.Nc1ccc(N2CCN(CC(O)COc3ccccc3C(=O)CCc3ccccc3)CC2)cc1 (racemic) | > 10 | Non-toxic | Non-toxic | Non-toxic | Non-toxic
10 | Cl.O=C(CCc1ccccc1)c1ccccc1OCC(O)CN1CCN(c2ccc(O)cc2)CC1 (racemic) | > 10 | Non-toxic | Non-toxic | Non-toxic | Non-toxic
11 | Cl.O=C(CCc1ccccc1)c1ccccc1OCC(O)CN1CCN(c2ccc(C(F)(F)F)cc2)CC1 (racemic) | > 10 | Non-toxic | Non-toxic | Non-toxic | Non-toxic
12 | Cl.O=C(CCc1ccccc1)c1ccccc1OCC(O)CN1CCN(C(=O)c2ccccc2)CC1 (racemic) | > 10 | Non-toxic | Non-toxic | Non-toxic | Non-toxic
13 | CN1CCN(CC(O)COc2ccccc2C(=O)CCc2ccccc2)CC1.Cl (racemic) | > 10 | Non-toxic | Non-toxic | Non-toxic | Non-toxic
14 | CCN1CCN(CC(O)COc2ccccc2C(=O)CCc2ccccc2)CC1.Cl (racemic) | > 10 | Non-toxic | Non-toxic | Non-toxic | Non-toxic
15 | Cl.O=C(CCc1ccccc1)c1ccccc1OCC(O)CN1CCOCC1 (racemic) | > 10 | Non-toxic | Non-toxic | Non-toxic | Non-toxic
16 | Cc1cccc([N+]2(c3ccccc3)CCN(CC(O)COc3ccccc3C(=O)CCc3ccc(F)cc3)CC2)c1.[Cl-] (racemic) | > 10 | Non-toxic | Non-toxic | Non-toxic | Non-toxic
17 | Cl.O=C(CCc1ccc(F)cc1)c1ccccc1OCC(O)CN1CCCCC1 (racemic) | > 10 | Non-toxic | Non-toxic | Non-toxic | Non-toxic
18 | Cl.O=C(CCc1ccc(F)cc1)c1ccccc1OCC(O)CN1CCC(c2ccccc2)CC1 (racemic) | > 10 | Non-toxic | Non-toxic | Non-toxic | Non-toxic
19 | Cl.O=C(CCc1ccc(F)cc1)c1ccccc1OCC(O)CN1CCC(Cc2ccccc2)CC1 (racemic) | > 10 | Non-toxic | Non-toxic | Non-toxic | Non-toxic

Row | Structure (SMILES) | selectivity ratio [1] | Activity (HEK293) | Activity (Raji) | Activity (HepG2) | Activity (BJ)
20 | Cl.O=C(CCc1ccc(F)cc1)c1ccccc1OCC(O)CN1CCC(c2ccc(Cl)cc2)CC1 (racemic) | > 10 | Non-toxic | Non-toxic | Non-toxic | Non-toxic
21 | Cl.O=C(CCc1ccc(F)cc1)c1ccccc1OCC(O)CN1CCC(O)(Cc2ccccc2)CC1 (racemic) | > 10 | Non-toxic | Non-toxic | Non-toxic | Non-toxic
22 | Cl.O=C(CCc1ccc(F)cc1)c1ccccc1OCC(O)CN1CCC(O)(c2ccc(Cl)cc2)CC1 (racemic) | > 10 | Non-toxic | Non-toxic | Non-toxic | Non-toxic
23 | Cl.O=C(CCc1ccc(F)cc1)c1ccccc1OCC(O)CN1CCN(c2ccccc2)CC1 (racemic) | > 10 | Non-toxic | Non-toxic | Non-toxic | Non-toxic
24 | Cl.O=C(CCc1ccc(F)cc1)c1ccccc1OCC(O)CN1CCN(Cc2ccccc2)CC1 (racemic) | > 10 | Non-toxic | Non-toxic | Non-toxic | Non-toxic
25 | Cc1ccccc1N1CCN(CC(O)COc2ccccc2C(=O)CCc2ccc(F)cc2)CC1.Cl (racemic) | > 10 | Non-toxic | Non-toxic | Non-toxic | Non-toxic
26 | Cc1cccc(N2CCN(CC(O)COc3ccccc3C(=O)CCc3ccc(F)cc3)CC2)c1.Cl (racemic) | > 10 | Non-toxic | Non-toxic | Non-toxic | Non-toxic
27 | Cc1ccc(N2CCN(CC(O)COc3ccccc3C(=O)CCc3ccc(F)cc3)CC2)cc1.Cl (racemic) | > 10 | Non-toxic | Non-toxic | Non-toxic | Non-toxic
28 | COc1ccccc1N1CCN(CC(O)COc2ccccc2C(=O)CCc2ccc(F)cc2)CC1.Cl (racemic) | > 10 | Non-toxic | Non-toxic | Non-toxic | Non-toxic
29 | COc1cccc(N2CCN(CC(O)COc3ccccc3C(=O)CCc3ccc(F)cc3)CC2)c1.Cl (racemic) | > 10 | Non-toxic | Non-toxic | Non-toxic | Non-toxic
30 | COc1ccc(N2CCN(CC(O)COc3ccccc3C(=O)CCc3ccc(F)cc3)CC2)cc1.Cl (racemic) | > 10 | Non-toxic | Non-toxic | Non-toxic | Non-toxic
31 | Cl.O=C(CCc1ccc(F)cc1)c1ccccc1OCC(O)CN1CCN(c2ccccc2Cl)CC1 (racemic) | > 10 | Non-toxic | Non-toxic | Non-toxic | Non-toxic
32 | Cl.O=C(CCc1ccc(F)cc1)c1ccccc1OCC(O)CN1CCN(c2ccc(Cl)cc2)CC1 (racemic) | > 10 | Non-toxic | Non-toxic | Non-toxic | Non-toxic
33 | Cl.O=C(CCc1ccc(F)cc1)c1ccccc1OCC(O)CN1CCN(c2ccc(Cl)c(Cl)c2)CC1 (racemic) | > 10 | Non-toxic | Non-toxic | Non-toxic | Non-toxic
34 | Cl.O=C(CCc1ccc(F)cc1)c1ccccc1OCC(O)CN1CCN(c2ccccc2F)CC1 (racemic) | > 10 | Non-toxic | Non-toxic | Non-toxic | Non-toxic
35 | Cl.O=C(CCc1ccc(F)cc1)c1ccccc1OCC(O)CN1CCN(c2ccc(F)cc2)CC1 (racemic) | > 10 | Non-toxic | Non-toxic | Non-toxic | Non-toxic
36 | Cl.O=C(CCc1ccc(F)cc1)c1ccccc1OCC(O)CN1CCN(c2ccc([N+](=O)[O-])cc2)CC1 (racemic) | > 10 | Non-toxic | Non-toxic | Non-toxic | Non-toxic
37 | Cl.Nc1ccc(N2CCN(CC(O)COc3ccccc3C(=O)CCc3ccc(F)cc3)CC2)cc1 (racemic) | > 10 | Non-toxic | Non-toxic | Non-toxic | Non-toxic
38 | Cl.O=C(CCc1ccc(F)cc1)c1ccccc1OCC(O)CN1CCN(c2ccc(O)cc2)CC1 (racemic) | > 10 | Non-toxic | Non-toxic | Non-toxic | Non-toxic
